Assay results taken from patent US20060165715A1, “Gp41 inhibitor” (priority 2001, published 2006).

Legend:
[1] = system: HIV Env-mediated cell fusion; assay: vaccinia virus-based reporter gene assay of HIV Env-mediated cell fusion (B-SC-1 target and effector cells, soluble CD4); parameters: species or system HIV-1; conditions: relative to both N35CCG-N13 and NCCG-gp41
[2] = biological target: HIV-1 (LAV) Env protein on effector cells (gp120/gp41; gp41 pre-hairpin fusion intermediate) (HIV-1 (LAV)) (UniProt P03377); assay: cell-based or functional assay
HIV-1 Env = conditions: from Ferrer et al., Nature Struct. Biol. 1999, given for comparison; read-out: IC50, fusion inhibitory activity; cited from earlier work
[3] = biological target: HIV-1 (LAV) Env protein on effector cells (gp120/gp41; gp41 pre-hairpin fusion intermediate) (HIV-1 (LAV), UniProt P03377 517-861); assay: cell-based or functional assay

For “N34CCG (MGSSHHHHHHSSGLVPRGSHMSGIVQQQNNLLRAIEAQQHLLQLTVWGIKQCCGR)”, the “fold lower inhibitory activity” value [1] was 5-6 fold.

“N36 peptide (residues 546-581 of HIV-1 Env) (from UniProt P04578 546-581)” gave an IC50, inhibition of HIV-1 Env-mediated cell fusion (vaccinia reporter gene assay, beta-galactosidase) [2] of 16400 nM.

In the case of enfuvirtide, the IC50 (HIV-1 Env) is listed as ~50 nM.

B1: 6H-N34CCG, disulfide-linked trimer (designed binder)
chain: MGSSHHHHHHSSGLVPRGSHMSGIVQQQNNLLRAIEAQQHLLQLTVWGIKQCCGR
With B1 the “IC50, inhibition of HIV Env-mediated cell fusion (vaccinia reporter gene assay, beta-galactosidase)” value [3] was 96 nM.
